Here are results for 2 molecules from US20200093824A1, “ERBB3 Activators in Hearing Restoration” (University of Rochester, priority 2018, published 2020).

The subject of assay [1] is organ of Corti explants (hair cells / supporting cells). Nature of the assay: Cochlear explant culture with Pa2g4/EBP1 inhibitors: MYO7+ / Atoh1-nGFP cell generation. It is filed as cell-based, mouse. The following applies: for Increase in number of MYO7+ cells in the apex / Atoh1-nGFP-positive cells near OHCs: Atoh1-nGFP mouse cochlear explants; for Increase in number of MYO7+ cells in the apex: WS3 or WS6 treatment; for Atoh1-nGFP-positive cells near OHCs: gradient from apex to base; for MYO7+ cell counts at the apex region versus controls: P1-P2 mouse organ of Corti explants, 48-72 hours, WS3 0.01 μM or WS6 0.5 μM vs DMSO, mean per 100 μm, WS6 p=0.0043, WS3 p=0.0060; for Concentration at which effects were observed in culture: application in culture. As for the experimental part: (§1) Cochleae were isolated from postnatal day 1-day 2 wild type or Atoh1-nGFP mice (Lumpkin, Collisson et al. 2003). The organ of Corti was isolated from the otic capsule, and the nerve tissue and stria vascularis were removed. The organ of Corti was plated on a glass coverslip coated with a 1:10 mixture of Matrigel and DMEM/F12 to promote attachment. Cochlear explants were cultured in a serum-free 1:1 mixture of DMEM and F12, supplemented with Glutamax, N2, and B27. For the treated cochlea, small molecules were added to this culture medium, while the control cochlea was cultured with medium containing DMSO at the same concentration used in the treatments. To measure proliferation, explants were treated with EdU (10 μg/ml) along with the drug or DMSO. Drug-treated explants were cultured for 3 days then fixed in 4% PFA for 30 min.
To quantify WS3 and WS6-treated cochleae, the length of the sensory epithelium was measured using ImageJ software with the overall length determined from the hook to the apex in each sample. The number of myosin VIIa-positive cells or Edu positive cells in the supporting cell region were manually counted. The total number of cells was counted in each of four cochlear segments of 1200-1400 μm (apical, mid-apical, mid-basal, and basal), density (cells per 100 μm) was then calculated for each segment. Statistical analyses were performed using Prism version 7.0 software; comparisons among groups were made by one-way ANOVA followed by Dunnett's multiple-comparisons test for comparing the mean of each group with the mean of a control group.
Our findings with the conditional ErbB2 activation animal models have shown that the constitutive activation of ERBB2 can result in SC expansion and ectopic MYO7+ cell generation. To further validate the crucial role of ERBB2 activation, inventors turned to small molecules to pharmacologically activate the ErbB pathway and determine their effect on SC expansion and HC differentiation. Two compounds, WS3 and WS6, were chosen, as these two analogues promoted cell proliferation in growth arrested cells such as […] and retinal pigment epithelial (RPE) cells (Shen, Tremblay et al. 2013, Swoboda, Elliott et al. 2013). […] To test the effect of these drugs on SCs, they were applied to cochlear explants derived from Atoh1-nGFP reporter mice (Lumpkin, Collisson et al. 2003). […] The number of MYO7+ cells in the apex was increased by 20 cells/100 μm (FIGS. 7A and 7B).

Assay [2] concerns retinal pigment epithelium (RPE) cells. The following applies: Swoboda, Elliott et al. 2013; cited from earlier work.
The subject of assay [3] is supporting cells in organ of Corti explants. Description: Cochlear explant culture with Pa2g4/EBP1 inhibitors: EdU supporting cell proliferation. It is filed as cell-based. The following applies: P1-P2 wild type mouse explants, 48-72 hours, WS3 0.01 μM or WS6 0.5 μM vs DMSO, gradient from apex to base. How it is done: as §1
To quantify WS3 and WS6-treated cochleae, the length of the sensory epithelium was measured using ImageJ software with the overall length determined from the hook to the apex in each sample. The number of myosin VIIa-positive cells or Edu positive cells in the supporting cell region were manually counted. The total number of cells was counted in each of four cochlear segments of 1200-1400 μm (apical, mid-apical, mid-basal, and basal), density (cells per 100 μm) was then calculated for each segment. […]

In assay [4] the test system is p-ERBB2 in MCF-7 cells. Nature of the assay: Western blot of ERBB2 pathway activation with anti-p-ERBB2 antibody (Y1248). It is filed as cell-based. The following applies: MCF-7 breast cancer cells, treated for 15 minutes. As for the experimental part: FIGS. 8A, 8A′. […] FIG. 8A. Images of the apex region of the P1-P2 organ of Corti cultured for 48-72 hours in the presence of DMSO, WS3 (0.01 μM), or WS6 (0.5 μM). MYO7a (green), SOX2 (red) and EdU (blue) are shown. IHC, inner hair cells; OHC, outer hair cells (FIG. 8A′) Cross section of organ of Corti from FIG. 8A at the yellow line. Scale bar: 25 microns. FIG. 8B. […] FIG. 8C. Western blot analysis of ERBB2 pathway activation was conducted using anti-p-ERBB2 antibody (Y1248) in MCF-7 cells. Cells were treated with WS3 or WS6 for 15 minutes.
To determine if the drug treatments promoted SC proliferation, the compound were applied to cochlear explants from wild type mice at P1-P2 with EdU present to label the proliferating cells. […] To confirm that the effect of the drugs was mediated through ERBB2 activation, the ERBB2 phosphorylation was analyzed using the protein lysates from cochlear explant.
(A western blot detects proteins with antibodies after separation by electrophoresis.)

For assay [5], the system named is rodent diabetes model. To be noted: by promoting cell proliferation, Shen, Tremblay et al. 2013; cited from earlier work.

Entries after “also recorded” stand apart in the source; their conditions may differ.

Regarding `CN1CCN(Cc2ccc(NC(=O)Nc3ccc(Oc4cc(NC(=O)C5CC5)ncn4)cc3)cc2C(F)(F)F)CC1` [WS3], in assay [1], the “Increase in number of MYO7+ cells in the apex” value was 20 cells/100 μm, the “Atoh1-nGFP-positive cells near OHCs” value is given as “additional Atoh1-nGFP-positive cells near OHCs were seen”, the “MYO7+ cell counts at the apex region versus controls” value is “Significantly more MYO7+ cells” and the “Concentration at which effects were observed in culture” value stood at 10 nM. Moreover, in assay [2], the “Expansion of retinal pigment epithelium (RPE) cells” value is on record as “expands retinal pigment epithelium (RPE) cells”. For the same molecule, the “EdU+ cells in the SOX2+ supporting cell region” value in assay [3] is given as “A large number of EdU+ cells were observed; also recorded: significantly more SCs”. Further, in assay [4], the p-ERBB2 level result was “elevated”.

On to `CN1CCN(Cc2ccc(NC(=O)Cc3ccc(Oc4cc(NC(=O)C5CC5)ncn4)cc3)cc2C(F)(F)F)CC1` [WS6], for which, in assay [1], the “Increase in number of MYO7+ cells in the apex” value was 20 cells/100 μm, the “Atoh1-nGFP-positive cells near OHCs” value was “additional Atoh1-nGFP-positive cells near OHCs were seen”, the “MYO7+ cell counts at the apex region versus controls” value is reported as “Significantly more MYO7+ cells” and the “Concentration at which effects were observed in culture” value is recorded as 500 nM. Further, in assay [5], the β-cell mass entry was “increases p3-cell mass”. Also, the “EdU+ cells in the SOX2+ supporting cell region” value in assay [3] is on record as “A large number of EdU+ cells were observed; also recorded: significantly more SCs”. In assay [4], the p-ERBB2 level result is listed as “elevated”.
